Patent US20250114420A1, “ANTIMICROBIAL NATURAL COMPOSITIONS” (BIO-ACTIVES SYNERGIO LTD, priority 2022, published 2025)

Columns and labels:
S. aureus (SA) = test: Agar dilution test; format: cell-based, Staphylococcus aureus; design: key: (+) indicates growth; (+/−) indicates partial growth; (−) indicates no growth; settings: Table 4, 24-48 hours
Procedure: (§1) An agar dilution test was carried out for various combinations of saponin extract (Sapindus mukorossi) and Styrax extract (Sumatra benzoin), with maltol extracted from wheat as an additional plant extract, for evaluating the synergistic antimicrobial effect therebetween.
(§2) The agar dilution test was carried out as follows: TSA (tryptic soy agar) or SDA (Sabouraud dextrose agar) media were melted at 99±2° C. and kept warm until seeding (43±2° C.). Into a quota of the growth medium, the maltol and extract were added and stirred. 5 ml of the mixture was poured into each test plate and left to cool and solidify. The plates were then inoculated by defined amounts of test microorganisms (E. coli, S. aureus and P. aeruginosa used on TSA plates, C. albicans and A. brasilliensis used on the SDA plates). The plates were incubated at 25-35° C. for 24-48 hours and then assessed for microorganisms' growth.
(§3) The test results for the combinations of saponin and Styrax extracts with maltol are detailed in Table 4, while the results for the compositions of saponin and Styrax extracts with maltol and citric acid are shown in Table 5. (+) indicates growth, (+/−) indicates partial growth, while (−) indicates no growth. Positive control was obtained by utilizing a commercial preservative. […]

A. brasilliensis (AB) = test: Agar dilution test; format: cell-based, Aspergillus brasiliensis; design: key: (+) indicates growth; (+/−) indicates partial growth; (−) indicates no growth; settings: Table 4, 24-48 hours
Procedure: as §1, §2, §3

C. albicans (CA) = test: Agar dilution test; format: cell-based, Candida albicans; design: key: (+) indicates growth; (+/−) indicates partial growth; (−) indicates no growth; settings: Table 4, 24-48 hours
Procedure: as §1, §2, §3

P. aeruginosa (PA) = test: Agar dilution test; format: cell-based, Pseudomonas aeruginosa; design: key: (+) indicates growth; (+/−) indicates partial growth; (−) indicates no growth; settings: Table 4, 24-48 hours
Procedure: as §1, §2, §3

E. coli (EC) = test: Agar dilution test; format: cell-based, Escherichia coli; design: key: (+) indicates growth; (+/−) indicates partial growth; (−) indicates no growth; settings: Table 4, 24-48 hours
Procedure: as §1, §2, §3

[1] = tested on: mixture of S. aureus, S. capitis, S. epidermis and S. hominis; test: Agar plates of cream samples inoculated with skin microbiota mixture (FIGS. 1A-1D); format: cell-based; settings: cream sample; after 7 hours of incubation
Procedure: FIGS. […] The upper panel of each agar plate was plated with mixture of representative microorganisms to provide a control to each of the experiments.
The mixture of microorganisms represents the natural skin microbiota. […] In comparison, FIGS. 1C and 1D show samples of the cream with the bottom half of the sample containing the compositions 5A and 5B, respectively, and without preservative in the upper half.

Row | SMILES | Agar dilution test result (growth), SA (S. aureus (SA); Teat 2 (duplicate)) | Agar dilution test result (growth), SA (S. aureus (SA); Test 1) | Agar dilution test result (growth), AB (A. brasilliensis (AB); Teat 2 (duplicate)) | Agar dilution test result (growth), AB (A. brasilliensis (AB); Test 1) | Agar dilution test result (growth), CA (C. albicans (CA); Teat 2 (duplicate)) | Agar dilution test result (growth), CA (C. albicans (CA); Test 1) | Agar dilution test result (growth), PA (P. aeruginosa (PA); Teat 2 (duplicate)) | Agar dilution test result (growth), PA (P. aeruginosa (PA); Test 1) | Agar dilution test result (growth), EC (E. coli (EC); Teat 2 (duplicate)) | Agar dilution test result (growth), EC (E. coli (EC); Test 1) | effect on natural skin microbiota on agar plate (FIGS. 1A-1D) [1]
1 | Cc1occc(=O)c1O [ML 0.02%, maltol] | + | + | + | + | + | + | + | + | + | + | 
2 | Cc1occc(=O)c1O [ML 0.04%, maltol] | +/− | +/− | + | + | +/− | +/− | + | + | + | + | 
3 | Cc1occc(=O)c1O [ML 0.08%, maltol] | + | + | +/− | +/− | − | − | − | − | +/− | +/− | 
4 | Cc1occc(=O)c1O [ML 0.05%, maltol] | +/− | +/− | + | + | + | + | +/− | +/− | + | + | 
5 | Cc1occc(=O)c1O [ML 0.1%, maltol] | − | − | +/− | +/− | − | − | − | − | + | + | 
6 | CCCCC(CC)COCC(O)CO (stereo not shown) [commercial synthetic preservative, ethylhexyl glycerin] |  |  |  |  |  |  |  |  |  |  | almost complete elimination of the microbiota
7 | Cc1occc(=O)c1O [ML 0.2%, maltol] | − | − | − | − | − | − | − | − | − | − | 
